From PubChem BioAssay AID1259407 (Chemical Carcinogenesis Research Information System (CCRIS), 2018) come the findings set out here.

This data set concerns CCRIS mutagenicity, Ames/micronucleus/aberration tests. The data set can be described thus: CCRIS mutagenicity studies.
Where [1] appears, read: Test System: AMES SALMONELLA TYPHIMURIUM, Strain/Indicator: TA100, Metabolic Activation: NONE, Method: STANDARD PLATE.
Setting [2] is: Test System: AMES SALMONELLA TYPHIMURIUM, Strain/Indicator: TA100, Metabolic Activation: RAT, LIVER, S-9, AROCLOR 1254, Method: STANDARD PLATE.
The mark [3] stands for this setting: Test System: AMES SALMONELLA TYPHIMURIUM, Strain/Indicator: TA1535, Metabolic Activation: NONE, Method: STANDARD PLATE.
[4] abbreviates: Test System: AMES SALMONELLA TYPHIMURIUM, Strain/Indicator: TA1535, Metabolic Activation: RAT, LIVER, S-9, AROCLOR 1254, Method: STANDARD PLATE.
Setting [5] is: Test System: AMES SALMONELLA TYPHIMURIUM, Strain/Indicator: TA98, Metabolic Activation: NONE, Method: STANDARD PLATE.

Activity calls are given as the source filed them. The rule behind the calls is not given here.

As for `CC(Cl)CCl` (stereo not given), the mutagenic call is, setting by setting: (End Point: IN VITRO CHROMOSOMAL ABERRATIONS, Test System: CHINESE HAMSTER OVARY CELLS, Metabolic Activation: RAT, LIVER, S-9, AROCLOR 1254) “active; positive”; (Test System: AMES SALMONELLA TYPHIMURIUM, Strain/Indicator: TA98, Metabolic Activation: NONE, Method: PREINCUBATION) “inactive; negative”; (Test System: AMES SALMONELLA TYPHIMURIUM, Strain/Indicator: TA98, Metabolic Activation: RAT LIVER S-9, PHENOBARBITAL AND BETA-NAPHTHOFLAVONE, Method: PREINCUBATION) “inactive; negative”; (Test System: AMES SALMONELLA TYPHIMURIUM, Strain/Indicator: TA100, Metabolic Activation: NONE, Method: PREINCUBATION) “inactive; negative”; under setting [1], “active; positive”; (Test System: AMES SALMONELLA TYPHIMURIUM, Strain/Indicator: TA100, Metabolic Activation: RAT LIVER S-9, PHENOBARBITAL AND BETA-NAPHTHOFLAVONE, Method: PREINCUBATION) “inactive; negative”. Further, the mutagenic call was “active; positive” under setting [2]; “inactive; negative” (Test System: AMES SALMONELLA TYPHIMURIUM, Strain/Indicator: TA102, Metabolic Activation: NONE, Method: PREINCUBATION); “inactive; negative” (Test System: AMES SALMONELLA TYPHIMURIUM, Strain/Indicator: TA102, Metabolic Activation: RAT LIVER S-9, PHENOBARBITAL AND BETA-NAPHTHOFLAVONE, Method: PREINCUBATION); “inactive; negative” (Test System: AMES SALMONELLA TYPHIMURIUM, Strain/Indicator: TA104, Metabolic Activation: NONE, Method: PREINCUBATION); “inactive; negative” (Test System: AMES SALMONELLA TYPHIMURIUM, Strain/Indicator: TA104, Metabolic Activation: RAT LIVER S-9, PHENOBARBITAL AND BETA-NAPHTHOFLAVONE, Method: PREINCUBATION); “inactive; negative” (Test System: AMES SALMONELLA TYPHIMURIUM, Strain/Indicator: TA1535, Metabolic Activation: NONE, Method: PREINCUBATION). The mutagenic call was “active; positive” under setting [3]; “inactive; negative” (Test System: AMES SALMONELLA TYPHIMURIUM, Strain/Indicator: TA1535, Metabolic Activation: RAT LIVER S-9, PHENOBARBITAL AND BETA-NAPHTHOFLAVONE, Method: PREINCUBATION); “active; positive” under setting [4]; “inactive; negative” (Test System: AMES SALMONELLA TYPHIMURIUM, Strain/Indicator: TA1537, Metabolic Activation: NONE, Method: PREINCUBATION); “inactive; negative” (Test System: AMES SALMONELLA TYPHIMURIUM, Strain/Indicator: TA1537, Metabolic Activation: RAT LIVER S-9, PHENOBARBITAL AND BETA-NAPHTHOFLAVONE, Method: PREINCUBATION); “inactive; negative” (Test System: E.COLI, Strain/Indicator: WP2UVRA/PKM101, Metabolic Activation: NONE, Method: PREINCUBATION). Also, the mutagenic call was “inactive; negative” (Test System: E.COLI, Strain/Indicator: WP2UVRA/PKM101, Metabolic Activation: RAT LIVER S-9, PHENOBARBITAL AND BETA-NAPHTHOFLAVONE, Method: PREINCUBATION); “inactive; negative” (Test System: E.COLI, Strain/Indicator: WP2UVRA, Metabolic Activation: NONE, Method: PREINCUBATION); “inactive; negative” (Test System: E.COLI, Strain/Indicator: WP2UVRA, Metabolic Activation: RAT LIVER S-9, PHENOBARBITAL AND BETA-NAPHTHOFLAVONE, Method: PREINCUBATION).

In the case of `COc1ccc2[nH]c3c(C)cc(N)c(C)c3c2c1`, the mutagenic call was “inactive; negative” under setting [5]; “active; positive” (Test System: AMES SALMONELLA TYPHIMURIUM, Strain/Indicator: TA98, Metabolic Activation: RAT LIVER S-9, AROCLOR 1254, Method: STANDARD PLATE); “inactive; negative” under setting [1]; “inactive; negative” (Test System: AMES SALMONELLA TYPHIMURIUM, Strain/Indicator: TA100, Metabolic Activation: RAT LIVER S-9, AROCLOR 1254, Method: STANDARD PLATE).

For the compound `CC(O)CCC(=O)c1ccoc1` (stereo not given), the mutagenic call reads like this: (Test System: AMES SALMONELLA TYPHIMURIUM, Strain/Indicator: TA98, Metabolic Activation: HAMSTER, LIVER, S-9, AROCLOR 1254, Method: STANDARD PLATE) “inactive; negative”; under setting [5], “inactive; negative”; (Test System: AMES SALMONELLA TYPHIMURIUM, Strain/Indicator: TA98, Metabolic Activation: RAT, LIVER, S-9, AROCLOR 1254, Method: STANDARD PLATE) “inactive; negative”; (Test System: AMES SALMONELLA TYPHIMURIUM, Strain/Indicator: TA100, Metabolic Activation: HAMSTER, LIVER, S-9, AROCLOR 1254, Method: STANDARD PLATE) “inactive; negative”; under setting [1], “inactive; negative”; under setting [2], “inactive; negative”. Further, the mutagenic call runs as follows: (Test System: AMES SALMONELLA TYPHIMURIUM, Strain/Indicator: TA1535, Metabolic Activation: HAMSTER, LIVER, S-9, AROCLOR 1254, Method: STANDARD PLATE) “inactive; negative”; under setting [3], “inactive; negative”; under setting [4], “inactive; negative”; (Test System: AMES SALMONELLA TYPHIMURIUM, Strain/Indicator: TA1537, Metabolic Activation: HAMSTER, LIVER, S-9, AROCLOR 1254, Method: STANDARD PLATE) “inactive; negative”; (Test System: AMES SALMONELLA TYPHIMURIUM, Strain/Indicator: TA1537, Metabolic Activation: NONE, Method: STANDARD PLATE) “inactive; negative”; (Test System: AMES SALMONELLA TYPHIMURIUM, Strain/Indicator: TA1537, Metabolic Activation: RAT, LIVER, S-9, AROCLOR 1254, Method: STANDARD PLATE) “inactive; negative”. Moreover, the mutagenic call is, setting by setting: (Test System: AMES SALMONELLA TYPHIMURIUM, Strain/Indicator: TA1538, Metabolic Activation: HAMSTER, LIVER, S-9, AROCLOR 1254, Method: STANDARD PLATE) “inactive; negative”; (Test System: AMES SALMONELLA TYPHIMURIUM, Strain/Indicator: TA1538, Metabolic Activation: NONE, Method: STANDARD PLATE) “inactive; negative”; (Test System: AMES SALMONELLA TYPHIMURIUM, Strain/Indicator: TA1538, Metabolic Activation: RAT, LIVER, S-9, AROCLOR 1254, Method: STANDARD PLATE) “inactive; negative”.
